# Laboratory results reported in patent US20070167478A1, “Biomarkers for sensitivity of proliferative diseases to mtor inhibitors” (priority 2003, published 2007).
# pIC50: −log10 of the molar value.
# Columns and labels:
# Type in all cases: cell-based
# [1] = test system: MCF7; assay: Antiproliferative assay, methylene blue staining, MCF7; conditions: MCF7 human tumor cell line, 4 days incubation
# Experimental: (§1) Human tumor cell lines, e.g. the 40-O-(2-hydroxyethyl) rapamycin-sensitive MCF7, BT549 or LNCap lines (IC50 in sub nM range) versus the comparative 40-O-(2-hydroxyethyl) rapamycin-resistant PC3M line (IC50 in the >100 nM range), as well as cell lines with moderate rapamcyin-sensitivity (IC50 in the 1 nM-100 nM range) such as DU145, HCC1937 and MDA-MB231, are added to 96-well plates (500 to 5000 cells/well in 100 μl medium) and incubated for 24 hr. Subsequently, a dilution series of an mTOR inhibitor, e.g. a compound of formula A, e.g. 40-O-(2-hydroxyethyl) rapamycin is made in separate wells and the dilutions are added to the wells. The cells are then re-incubated for 4 days. Methylene blue staining is performed on day 5 and the amount of bound dye (proportional to the number of surviving cells that bind the dye) determined. IC50s are subsequently determined using Softmax 1.2.0 software.
# [2] = test system: LNCap; assay: Antiproliferative assay, methylene blue staining, LNCap; conditions: LNCap human tumor cell line, 4 days incubation
# Experimental: as §1
# [3] = test system: BT549; assay: Antiproliferative assay, methylene blue staining, BT549; conditions: BT549 human tumor cell line, 4 days incubation
# Experimental: as §1
# [4] = test system: PC3M; assay: Antiproliferative assay, methylene blue staining, PC3M; conditions: PC3M human tumor cell line, 4 days incubation
# Experimental: as §1
smiles,measurement,setting,value
CO[C@H]1C[C@@H]2CC[C@@H](C)[C@@](O)(O2)C(=O)C(=O)N2CCCC[C@H]2C(=O)O[C@H]([C@H](C)C[C@@H]2CC[C@@H](OCCO)[C@H](OC)C2)CC(=O)[C@H](C)/C=C(\C)[C@@H](O)[C@@H](OC)C(=O)[C@H](C)C[C@H](C)/C=C/C=C/C=C/1C [40-O-(2-hydroxyethyl) rapamycin],IC50,[1],sub nM
same,IC50,[2],sub nM
same,IC50,[3],sub nM
same,pIC50,[4],< 7.00
